Results published in US5391540A, “Substituted pyridine compounds” (Rohm and Haas Company, priority 1993, dated 1995).

Assays:
Type in all cases: in vivo
Barnyardgrass = assay: Pre-emergent herbicidal activity (Table A); conditions: Echinochloa crus-galli, pre-emergence, Bygr, 11.2 kg/ha, 10-14 days, read-out: herbicidal rating (% inhibition)
Summary of the method: (§1)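 Seeds or vegetative propagules were set on topsoil compacted to 0.95 to 1.27 cm below the pan rim, then covered with soil thoroughly mixed with a known amount of test compound in acetone or water carrier. Ratings follow a scale of percent inhibition per species.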

Cocklebur = assay: Pre-emergent herbicidal activity (Table A); conditions: Xanthium strumarium, pre-emergence, Cobu, 11.2 kg/ha, 10-14 days, read-out: herbicidal rating (% inhibition)
Summary of the method: as §1

Downy Brome = assay: Pre-emergent herbicidal activity (Table A); conditions: Bromus tectorum, pre-emergence, Dobr, 11.2 kg/ha, 10-14 days, read-out: herbicidal rating (% inhibition)
Summary of the method: as §1

Morningglory = assay: Pre-emergent herbicidal activity (Table A); conditions: Ipomoea, pre-emergence, Mogl, 11.2 kg/ha, 10-14 days, read-out: herbicidal rating (% inhibition)
Summary of the method: as §1

Bygr = assay: plant injury after spraying emerged plants (Table D); parameters: scale not given here
Summary of the method: (§2)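 Seeds or perennial propagules were pressed onto steam-sterilized sieved silt loam topsoil and covered with 1.27 cm of a 50:50 topsoil and peat moss/vermiculite/wetting agent mix. Pans were kept on a greenhouse bench over capillary mat and subirrigated as needed.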

Cobu = assay: as above; parameters: scale not given here
Summary of the method: as §2

Corn = assay: as above; parameters: scale not given here
Summary of the method: as §2

Grft = assay: as above; parameters: scale not given here
Summary of the method: as §2

Grso = assay: as above; parameters: scale not given here
Summary of the method: as §2

Lacg = assay: as above; parameters: scale not given here
Summary of the method: as §2

Mogl = assay: as above; parameters: scale not given here
Summary of the method: as §2

Prmi = assay: as above; parameters: scale not given here
Summary of the method: as §2

Rice = assay: as above; parameters: scale not given here
Summary of the method: as §2

Sobe = assay: as above; parameters: scale not given here
Summary of the method: as §2

Whez = assay: as above; parameters: scale not given here
Summary of the method: as §2

Dobr = assay: as above

## COC(=O)c1c(OC)nc(C(F)(F)F)c(C(=O)n2cccn2)c1CC1CC1 [Compound 116, 3-pyridinecarboxylic acid, 4-(cyclopropylmethyl)-2-methoxy-5-(1H-pyrazo1-1-ylcarbonyl)-6-(trifluoromethyl)-, methyl ester]
Barnyardgrass
  inhibition at 11200 g/ha: 75 to 100%
Cocklebur
  inhibition at 11200 g/ha: 50 to 74%
Downy Brome
  inhibition at 11200 g/ha: 75 to 100%
Morningglory
  inhibition at 11200 g/ha: 75 to 100%
Bygr; 0.0701 kg/ha
  plant injury rating, Bygr: 0
Bygr; 0.2803 kg/ha
  plant injury rating, Bygr: 0
Bygr; 1.1210 kg/ha
  plant injury rating, Bygr: 0
Bygr; 5.6050 kg/ha
  plant injury rating, Bygr: 1
Cobu; 0.0701 kg/ha
  plant injury rating, Cobu: 0
Cobu; 0.2803 kg/ha
  plant injury rating, Cobu: 1
Cobu; 1.1210 kg/ha
  plant injury rating, Cobu: 2
Cobu; 5.6050 kg/ha
  plant injury rating, Cobu: 2
Corn; 0.0701 kg/ha
  plant injury rating, Corn: 0
Corn; 0.2803 kg/ha
  plant injury rating, Corn: 0
Corn; 1.1210 kg/ha
  plant injury rating, Corn: 2
Corn; 5.6050 kg/ha
  plant injury rating, Corn: 2
Grft; 0.0701 kg/ha
  plant injury rating, Grft: 0
Grft; 0.2803 kg/ha
  plant injury rating, Grft: 0
Grft; 1.1210 kg/ha
  plant injury rating, Grft: 0
Grft; 5.6050 kg/ha
  plant injury rating, Grft: 1
Grso; 0.2803 kg/ha
  plant injury rating, Grso: 0
Grso; 1.1210 kg/ha
  plant injury rating, Grso: 0
Grso; 5.6050 kg/ha
  plant injury rating, Grso: 1
Lacg; 0.0701 kg/ha
  plant injury rating, Lacg: 2
Lacg; 0.2803 kg/ha
  plant injury rating, Lacg: 2
Lacg; 1.1210 kg/ha
  plant injury rating, Lacg: 2
Lacg; 5.6050 kg/ha
  plant injury rating, Lacg: 2
Mogl; 0.0701 kg/ha
  plant injury rating, Mogl: 2
Mogl; 0.2803 kg/ha
  plant injury rating, Mogl: 1
Mogl; 1.1210 kg/ha
  plant injury rating, Mogl: 2
Mogl; 5.6050 kg/ha
  plant injury rating, Mogl: 2
Prmi; 0.0701 kg/ha
  plant injury rating, Prmi: 0
Prmi; 0.2803 kg/ha
  plant injury rating, Prmi: 0
Prmi; 1.1210 kg/ha
  plant injury rating, Prmi: 0
Prmi; 5.6050 kg/ha
  plant injury rating, Prmi: 0
Rice; 0.0701 kg/ha
  plant injury rating, Rice: 0
Rice; 0.2803 kg/ha
  plant injury rating, Rice: 0
Rice; 1.1210 kg/ha
  plant injury rating, Rice: 0
Rice; 5.6050 kg/ha
  plant injury rating, Rice: 0
Sobe; 0.0701 kg/ha
  plant injury rating, Sobe: 1
Sobe; 0.2803 kg/ha
  plant injury rating, Sobe: 1
Sobe; 1.1210 kg/ha
  plant injury rating, Sobe: 2
Sobe; 5.6050 kg/ha
  plant injury rating, Sobe: 2
Whez; 0.0701 kg/ha
  plant injury rating, Whez: 0
Whez; 0.2803 kg/ha
  plant injury rating, Whez: 0
Whez; 1.1210 kg/ha
  plant injury rating, Whez: 0
Whez; 5.6050 kg/ha
  plant injury rating, Whez: 0
Dobr; 0.0701 kg/ha
  plant injury rating, Dobr: 0
Dobr; 0.2803 kg/ha
  plant injury rating, Dobr: 0
Dobr; 1.1210 kg/ha
  plant injury rating, Dobr: 0
Dobr; 5.6050 kg/ha
  plant injury rating, Dobr: 0

## COC(=O)c1c(OC)nc(C(F)(F)F)c(C(=O)SC)c1C1CCC1 [Compound 137, 3-pyridinecarboxylic acid, 4-cyclobuty1-2-methoxy-5-[(methylthio)carbonyl]-6-(trifluoromethyl)-, methyl ester]
Barnyardgrass
  inhibition at 11200 g/ha: 75 to 100%
Cocklebur
  inhibition at 11200 g/ha: 75 to 100%
Downy Brome
  inhibition at 11200 g/ha: 75 to 100%
Morningglory
  inhibition at 11200 g/ha: 75 to 100%
Bygr; 0.2803 kg/ha
  plant injury rating, Bygr: 1
Bygr; 1.1210 kg/ha
  plant injury rating, Bygr: 2
Bygr; 5.6050 kg/ha
  plant injury rating, Bygr: 2
Cobu; 0.2803 kg/ha
  plant injury rating, Cobu: 0
Cobu; 1.1210 kg/ha
  plant injury rating, Cobu: 1
Cobu; 5.6050 kg/ha
  plant injury rating, Cobu: 3
Corn; 0.2803 kg/ha
  plant injury rating, Corn: 0
Corn; 1.1210 kg/ha
  plant injury rating, Corn: 0
Corn; 5.6050 kg/ha
  plant injury rating, Corn: 1
Grft; 0.2803 kg/ha
  plant injury rating, Grft: 2
Grft; 1.1210 kg/ha
  plant injury rating, Grft: 2
Grft; 5.6050 kg/ha
  plant injury rating, Grft: 2
Grso; 0.2803 kg/ha
  plant injury rating, Grso: 0
Grso; 1.1210 kg/ha
  plant injury rating, Grso: 0
Grso; 5.6050 kg/ha
  plant injury rating, Grso: 2
Lacg; 0.2803 kg/ha
  plant injury rating, Lacg: 3
Lacg; 1.1210 kg/ha
  plant injury rating, Lacg: 3
Lacg; 5.6050 kg/ha
  plant injury rating, Lacg: 3
Mogl; 0.2803 kg/ha
  plant injury rating, Mogl: 1
Mogl; 1.1210 kg/ha
  plant injury rating, Mogl: 1
Mogl; 5.6050 kg/ha
  plant injury rating, Mogl: 2
Prmi; 0.2803 kg/ha
  plant injury rating, Prmi: 0
Prmi; 1.1210 kg/ha
  plant injury rating, Prmi: 0
Prmi; 5.6050 kg/ha
  plant injury rating, Prmi: 1
Rice; 0.2803 kg/ha
  plant injury rating, Rice: 0
Rice; 1.1210 kg/ha
  plant injury rating, Rice: 1
Rice; 5.6050 kg/ha
  plant injury rating, Rice: 1
Sobe; 0.2803 kg/ha
  plant injury rating, Sobe: 0
Sobe; 1.1210 kg/ha
  plant injury rating, Sobe: 2
Sobe; 5.6050 kg/ha
  plant injury rating, Sobe: 2
Whez; 0.2803 kg/ha
  plant injury rating, Whez: 0
Whez; 1.1210 kg/ha
  plant injury rating, Whez: 0
Whez; 5.6050 kg/ha
  plant injury rating, Whez: 0
Dobr; 0.2803 kg/ha
  plant injury rating, Dobr: 0
Dobr; 1.1210 kg/ha
  plant injury rating, Dobr: 1
Dobr; 5.6050 kg/ha
  plant injury rating, Dobr: 1

## COC(=O)c1c(OC)nc(C(F)(F)F)c(C(=O)n2ccc(F)n2)c1C1CCC1 [Compound 140, 3-pyridinecarboxylic acid, 4-cyclobuty1-5-[(3-fluoro-1H-pyrazo1-1-yl)carbonyl]-2-methoxy-6-(trifluoromethyl)-, methyl ester]
Barnyardgrass
  inhibition at 11200 g/ha: 75 to 100%
Cocklebur
  inhibition at 11200 g/ha: 0 to 24%
Downy Brome
  inhibition at 11200 g/ha: 75 to 100%
Morningglory
  inhibition at 11200 g/ha: 75 to 100%
Bygr; 0.2803 kg/ha
  plant injury rating, Bygr: 0
Bygr; 1.1210 kg/ha
  plant injury rating, Bygr: 0
Bygr; 5.6050 kg/ha
  plant injury rating, Bygr: 0
Cobu; 0.2803 kg/ha
  plant injury rating, Cobu: 1
Cobu; 1.1210 kg/ha
  plant injury rating, Cobu: 3
Cobu; 5.6050 kg/ha
  plant injury rating, Cobu: 3
Corn; 0.2803 kg/ha
  plant injury rating, Corn: 2
Corn; 1.1210 kg/ha
  plant injury rating, Corn: 1
Corn; 5.6050 kg/ha
  plant injury rating, Corn: 2
Grft; 0.2803 kg/ha
  plant injury rating, Grft: 0
Grft; 1.1210 kg/ha
  plant injury rating, Grft: 0
Grft; 5.6050 kg/ha
  plant injury rating, Grft: 0
Grso; 0.2803 kg/ha
  plant injury rating, Grso: 0
Grso; 1.1210 kg/ha
  plant injury rating, Grso: 0
Grso; 5.6050 kg/ha
  plant injury rating, Grso: 0
Lacg; 0.2803 kg/ha
  plant injury rating, Lacg: 2
Lacg; 1.1210 kg/ha
  plant injury rating, Lacg: 2
Lacg; 5.6050 kg/ha
  plant injury rating, Lacg: 3
Mogl; 0.2803 kg/ha
  plant injury rating, Mogl: 2
Mogl; 1.1210 kg/ha
  plant injury rating, Mogl: 2
Mogl; 5.6050 kg/ha
  plant injury rating, Mogl: 2
Prmi; 0.2803 kg/ha
  plant injury rating, Prmi: 0
Prmi; 1.1210 kg/ha
  plant injury rating, Prmi: 0
Prmi; 5.6050 kg/ha
  plant injury rating, Prmi: 0
Rice; 0.2803 kg/ha
  plant injury rating, Rice: 0
Rice; 1.1210 kg/ha
  plant injury rating, Rice: 0
Rice; 5.6050 kg/ha
  plant injury rating, Rice: 0
Sobe; 1.1210 kg/ha
  plant injury rating, Sobe: 2
Sobe; 5.6050 kg/ha
  plant injury rating, Sobe: 2
Whez; 0.2803 kg/ha
  plant injury rating, Whez: 0
Whez; 1.1210 kg/ha
  plant injury rating, Whez: 0
Whez; 5.6050 kg/ha
  plant injury rating, Whez: 0
Dobr; 0.2803 kg/ha
  plant injury rating, Dobr: 0
Dobr; 1.1210 kg/ha
  plant injury rating, Dobr: 0
Dobr; 5.6050 kg/ha
  plant injury rating, Dobr: 0
